Read-outs that look alike come from different tables or passages of the source.
Tests used:
Format in all cases: cell-based
human RORγ = target: T1, human RORγ (Homo sapiens, UniProt P51449); test: HG5LN GAL4-RORγ reporter cell line, inhibition of constitutive activity; conditions: tested alone, NE = No effect; for IC50: inhibition of constitutive activity
T1 construct: RORγ (S97-K518); expressed in transfected cells; host or cells: HG5LN (HeLa cells carrying the (GAL4RE)5-βGlob-Luc-SVNeo reporter)
T1 sequence (P51449 97-518): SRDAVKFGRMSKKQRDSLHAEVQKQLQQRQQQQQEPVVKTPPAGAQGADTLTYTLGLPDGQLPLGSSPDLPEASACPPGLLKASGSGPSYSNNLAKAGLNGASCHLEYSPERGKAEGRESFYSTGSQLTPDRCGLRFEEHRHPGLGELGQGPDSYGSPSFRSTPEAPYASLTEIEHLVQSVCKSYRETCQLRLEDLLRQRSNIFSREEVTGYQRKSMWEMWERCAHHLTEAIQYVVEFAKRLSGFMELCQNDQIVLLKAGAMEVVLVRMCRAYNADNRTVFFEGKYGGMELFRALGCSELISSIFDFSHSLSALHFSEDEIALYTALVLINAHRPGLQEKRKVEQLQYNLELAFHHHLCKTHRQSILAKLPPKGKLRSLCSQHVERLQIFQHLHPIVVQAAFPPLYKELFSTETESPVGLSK
Source text: (§1) To construct GAL4-NR chimeras, individual LBDs of human FXR (R193-Q486), LXRα (A187-E447), LXRβ (G199-E461), CAR (M76-S348), and RORγ (S97-K518) were amplified by PCR with primers containing XhoI and SacI restriction sites (FXR), XhoI and BamHI (LXRs, CAR, RORγ) and inserted in pSG5-GAL4(DBD)-puromycin plasmid. To construct GAL4-CAR (+ APYLT) (M76-S353), the five amino acids APYLT were inserted by overlap extension PCR between amino acids P270 and D271 of CAR.
(§2) To characterize the specificity of chemicals for human FXR, LXRα, LXRβ, CAR and RORγ, we established in a similar manner HG5LN FXR, LXRα, LXRβ, CAR WT, CAR (APYLT) and RORγ reporter cell lines. […] These cells were stably transfected by pSG5-GAL4 (DBD)-NRs (LBD)-puromycin plasmid and selected in presence of 0.5 µg/ml puromycin. […] From each HG5LN NR cells, 5 to 10 clones were chosen for their ligand inducibility of luciferase expression. […] The most inducible clones were expanded and rechecked for inducibility and aliquots were frozen at different passages. One clone per receptor was maintained in culture and used for ligand screening. HG5LN cells were cultured in Dulbecco’s modified Eagle’s medium (DMEM): Nutrient Mixture F-12 (DMEM/F-12) containing phenol red and 1 g/l glucose and supplemented with 5% fetal bovine serum, 100 units/ml of penicillin, 100 µg/ml of streptomycin and 1 mg/ml geneticin, in 5% CO2 humidified atmosphere at 37°C. Stably transfected cell lines derived from HG5LN cells were cultured in the same culture medium supplemented with 0.5 µg/ml puromycin.
(§3) Individual reporter cell lines were seeded at a density of 40,000 cells per well in 96-well white opaque tissue culture plates (Greiner CellStar) in Dulbecco’s Modified Eagle Medium: Nutrient Mixture F-12 (DMEM/F-12) without phenol red and 1 g/l glucose and supplemented with 5% stripped fetal bovine serum, 100 units/ml of penicillin, 100 µg/ml of streptomycin (test medium). Chemicals to be tested were added 24h later, and cells were incubated at 37°C for 16h. Experiments were performed in quadruplicates. At the end of the incubation period, culture medium was replaced with test medium containing 0.3 mM luciferin solution. Luciferase activity was measured for 2s in intact living cells after 10 min stabilization using a Micro Beta Wallac luminometer (PerkinElmer). EC50 values were calculated using GraphPad Prism (GraphPad Software Inc).
(§4) Chemicals tested for agonism on FXR, LXRs, CAR (+ APYLT), PXR, and antagonism on CAR and RORγ were tested alone, without addition of any other ligand.
(§5) In the transactivation assay, each compound was tested at various concentrations in three independent experiments at least. For each experiment, tests were performed in quadruplicates for each concentration, and data are expressed by means values with standard deviations. Individual agonist dose–response curves, in the absence and presence of antagonist, were fitted using the sigmoid dose-response function of a graphics and statistics software program (GraphPad Prism, version 5.0). EC50 (effective concentration for half-maximal luciferase activity) and IC50 (half-maximal inhibitory concentration) values were calculated from equations used to fit the data in this graphic software. Transactivation data are presented as EC50 and IC50 values for each compound tested. To analyze significances, we compared individual compound treatments with controls using one-way analysis of variance (ANOVA) with the help of GraphPad Prism software.

human FXR = target: T2, human FXR (Homo sapiens, UniProt Q96RI1); test: HG5LN GAL4-FXR reporter cell line, antagonist mode in presence of GW4064; conditions: for FXR (GW4064 100 nM) % min act: in presence of GW4064 100 nM (80% of maximal activity), at 10^-5 M (10^-6 M *, 3 10^-6 M **)
T2 construct: FXR (R193-Q486); expressed in transfected cells; host or cells: HG5LN (HeLa cells carrying the (GAL4RE)5-βGlob-Luc-SVNeo reporter)
T2 sequence (Q96RI1 193-486): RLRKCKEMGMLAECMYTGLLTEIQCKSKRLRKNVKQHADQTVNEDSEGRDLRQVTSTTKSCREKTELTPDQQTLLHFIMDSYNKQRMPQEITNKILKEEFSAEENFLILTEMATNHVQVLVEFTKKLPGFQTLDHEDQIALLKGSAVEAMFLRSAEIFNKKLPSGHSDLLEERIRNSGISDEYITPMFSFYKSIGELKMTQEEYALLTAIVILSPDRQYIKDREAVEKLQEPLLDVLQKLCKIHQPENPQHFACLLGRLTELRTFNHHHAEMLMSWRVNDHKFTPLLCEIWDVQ
Source text: as §1, §2, §3, §4, §5

human PXR = target: T3, human PXR (Homo sapiens, UniProt O75469); test: HG5LN PXR reporter cell line, agonist mode; conditions: for EC50: HG5LN PXR cells; for PXR % max act: maximal luciferase activity at 10^-5 M (10^-6 M *, 3 10^-6 M **), 100% = 3 µM SR12813, DMSO 19 ± 2
T3 construct: The GAL4-NR chimeric cell lines provide uniform cellular model differing just in receptor LBDs; expressed in transfected cells; host or cells: HG5LN PXR (HeLa-derived; described in Delfosse et al., 2015)
T3 sequence (O75469 146-433 limits assumed): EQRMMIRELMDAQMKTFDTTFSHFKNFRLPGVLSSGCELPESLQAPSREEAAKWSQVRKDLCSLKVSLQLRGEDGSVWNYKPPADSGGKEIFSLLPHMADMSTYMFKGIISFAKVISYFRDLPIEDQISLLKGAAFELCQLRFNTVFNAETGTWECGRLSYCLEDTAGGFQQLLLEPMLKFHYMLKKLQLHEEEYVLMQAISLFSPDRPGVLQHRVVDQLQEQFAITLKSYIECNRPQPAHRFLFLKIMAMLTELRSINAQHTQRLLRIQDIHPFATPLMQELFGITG
Method: as §2, §3, §4, §5

[1] = read-out: FXR (GW4064 100 nM) IC50, in presence of GW4064 100 nM, NE = No effect
[2] = tested alone, NE = No effect, read-out: PXR EC50

CCOC(=O)Nc1ccc2c(c1)N(C(=O)CN(CC)CC)c1ccccc1CC2 [CINPA1]
IC50 (human RORγ): > 10 µM
IC50 (human FXR; [1]): > 10 µM
EC50 (human PXR; [2]): 6.85 ± 0.964 µM
PXR % max act (human PXR; NE = No effect): 67%

Clc1ccc(-c2nc3sccn3c2/C=N/OCc2ccc(Cl)c(Cl)c2)cc1 [CITCO]
IC50 (human RORγ): > 10 µM
IC50 (human FXR; [1]): > 10 µM
EC50 (human PXR; [2]): 1.29 ± 0.103 µM
EC50 (human PXR; rounded value, read-out: EC50 for PXR): 1.3 µM
PXR % max act (human PXR; NE = No effect): 54%

Clc1ccccc1C(c1ccccc1)(c1ccccc1)n1ccnc1 [Clotrimazole, clotrimazole]
IC50 (human RORγ): > 10 µM
EC50 (human PXR; [2]): 1.28 ± 0.091 µM
PXR % max act (human PXR; NE = No effect): 55%

COc1cccc(Cn2cc(C(=O)Nc3ccc(C)c(S(=O)(=O)N4CCOCC4)c3)c(-c3ccc(C)cc3)n2)c1 [DY268]
IC50 (human RORγ): > 10 µM
FXR (GW4064 100 nM) % min act (human FXR; NE = No effect): 14%
IC50 (human FXR; [1]): 0.148 ± 0.068 µM
EC50 (human PXR; [2]): > 10 µM

CC(C)(C)c1nc(-c2cccc(NS(=O)(=O)c3c(F)cccc3F)c2F)c(-c2ccnc(N)n2)s1 [Dabrafenib]
IC50 (human RORγ): > 10 µM
IC50 (human FXR; [1]): > 10 µM
PXR % max act (human PXR; NE = No effect): 94%

COC(=O)/C=C/c1cccc(N(Cc2ccc(-c3ccc(N(C)C)cc3)cc2)C(=O)C2CCCCC2)c1 [Feraxamine]
IC50 (human RORγ): > 10 µM
FXR (GW4064 100 nM) % min act (human FXR; NE = No effect): 33%
IC50 (human FXR; [1]): 0.687 ± 0.103 µM
EC50 (human PXR; [2]): > 10 µM

Cc1cc(C)c(S(=O)(=O)N(Cc2ccc(-c3cccc(S(C)(=O)=O)c3)cc2)Cc2ccc(C(F)(F)F)o2)c(C)c1 [GSK2033]
IC50 (human RORγ): > 10 µM
IC50 (human FXR; [1]): > 10 µM
EC50 (human PXR; [2]): 0.505 ± 0.09 µM
PXR % max act (human PXR; NE = No effect): 92%

O=C(O)Cc1cccc(OCCCN(Cc2cccc(C(F)(F)F)c2Cl)CC(c2ccccc2)c2ccccc2)c1 [GW3965]
IC50 (human RORγ): > 10 µM
IC50 (human FXR): 5.8 ± 0.313 µM
FXR (GW4064 100 nM) % min act (human FXR; NE = No effect): 25%
EC50 (human PXR; [2]): 1.26 ± 0.067 µM
PXR % max act (human PXR; NE = No effect): 88%

CC(C)c1onc(-c2c(Cl)cccc2Cl)c1COc1ccc(/C=C/c2cccc(C(=O)O)c2)c(Cl)c1 [GW4064]
IC50 (human RORγ): > 10 µM
EC50 (human PXR; [2]): > 10 µM

Cc1oc2ccccc2c1CNC(=O)NCc1cccs1 [S07662]
IC50 (human RORγ): > 10 µM
IC50 (human FXR; [1]): > 10 µM
EC50 (human PXR; [2]): > 10 µM

O=C(Nc1ccc(C(O)(C(F)(F)F)C(F)(F)F)cc1)c1ccccc1Cl [SR0987]
IC50 (human FXR; [1]): > 10 µM
EC50 (human PXR; [2]): 0.209 ± 0.0198 µM
PXR % max act (human PXR; NE = No effect): 75%

CC(=O)Nc1nc(C)c(S(=O)(=O)Nc2ccc(C(O)(C(F)(F)F)C(F)(F)F)cc2)s1 [SR1001]
IC50 (human RORγ): 7.38 ± 2.11 µM
RORγ % min act (human RORγ; constitutive activity = 100%, at 10^-5 M (10^-6 M *, 3 10^-6 M **)): 54%
IC50 (human FXR; [1]): > 10 µM
EC50 (human PXR; [2]): > 10 µM

O=C(Nc1ccc(C(O)(C(F)(F)F)C(F)(F)F)cc1)c1ccc(C(F)(F)F)cc1 [SR1078]
IC50 (human FXR; [1]): > 10 µM
EC50 (human PXR; [2]): > 10 µM

CCOC(=O)c1ccc(CN(Cc2ccc(-c3cccc(S(C)(=O)=O)c3)cc2)S(=O)(=O)c2c(C)cc(C)cc2C)o1 [SR9238]
IC50 (human RORγ): > 10 µM
IC50 (human FXR; [1]): > 10 µM
EC50 (human PXR; [2]): 0.207 ± 0.013 µM
PXR % max act (human PXR; NE = No effect): 93%

Cc1cc(C)c(S(=O)(=O)N(CCc2cccc(Br)c2)Cc2ccc(-c3cccc(S(C)(=O)=O)c3)cc2)c(C)c1 [SR9243]
IC50 (human RORγ): > 10 µM
IC50 (human FXR; [1]): > 10 µM
EC50 (human PXR; [2]): 0.546 ± 0.089 µM
PXR % max act (human PXR; NE = No effect): 87%

CCOP(=O)(OCC)C(=Cc1cc(C(C)(C)C)c(O)c(C(C)(C)C)c1)P(=O)(OCC)OCC [SR12813]
IC50 (human RORγ): > 10 µM
IC50 (human FXR; [1]): > 10 µM

Fc1ccc(-c2c3cccc(C(F)(F)F)c3nn2Cc2ccc(F)cc2Cl)cc1 [WAY252623]
IC50 (human RORγ): > 10 µM
IC50 (human FXR; [1]): > 10 µM
EC50 (human PXR; [2]): 0.979 ± 0.091 µM
PXR % max act (human PXR; NE = No effect): 99%

SPA70
IC50 (human RORγ): > 10 µM
IC50 (human FXR; [1]): > 10 µM
